target: T1, BTK kinase (Homo sapiens, UniProt Q06187); assay: Assay of inhibition activity of BTK in vitro (HTRF kit, read on Envision); assay type: biochemical; details: 1.0 nM BTK, 1 μM biotin-TK1 peptide, 20 μM ATP, 23° C., tested by Envision; read-out: BTK IC50
T1 construct: purchased Invitrogen PR5442A
Experimental: Assay of Inhibition Activity of BTK In Vitro
The inhibition of compounds on BTK kinase was evaluated by […] detected by Envision, using the IC50 value of the compounds as index.
BTK kinase: Invitrogen-PR5442A
HTRF Assay Kit: Cisbio-62TKOPEJ
Plate for compound preparation: Greiner-781280
Cisbio HTRF Kit: Cisbio-62TKOPEJ
Centrifuge: Eppendorf-5810R
Bravo: Agilent Technologies-Bravo
Gradient Dilution of Compounds: […]
The test compound was dissolved with DMSO to be of 1 mM as a stock solution. Such a stock solution was diluted with DMSO by 10-fold, thereby obtaining an initial solution in a concentration of […] which was added into wells at the second column in a plate. 20 μL DMSO was added to other wells using Bravo. Then, 10 μL of the initial solution was transferred from wells at the second column to wells at the third column, followed by mixing obtained solution in the wells at the third column, thereby obtain a first diluted solution in a concentration of 1/3 μM. Subsequently, 10 μL of the first diluted solution was further transferred from wells at the third column to wells at the fourth column, followed by mixing obtained solution in the wells at the fourth column, thereby obtain a second diluted solution in a concentration of 1/9 μM. Such a three-fold serial dilution was performed 10 times, with 11 solutions in series diluted concentrations and a final diluted solution in a concentration of 0.017 nM obtained.
All diluted solutions were further diluted by 25-fold with ultrapure water, thus obtain test solutions, which were equilibrated at r.t. for 30 min before use.
To 2.5 μL of test solution, which was pipetted into each well of Assay plate using Bravo, 5 μL kinase mixture was added using the multi-channel pipettor. The mixture was centrifuged at 1000 rpm for 20 s, followed by incubation at 23° C. for 30 min. The reaction was initiated by 2.5 μL ATP mixture which was pipetted into the wells by Multidrop.
The reaction mixture of BTK kinase (10 μL) included 1.0 nM BTK, 1 μM biotin-TK1 peptide and 20 μM ATP. The reaction buffer included 50 mM Hepes (pH7.5), 10 mM MgCl2 and 0.01 mM […]. The kinase mixture was reacted in incubator at 23° C. for 90 mim.
The reaction was stopped by adding 10 μL Detection Reagent to each well of Assay plate, and the plate was left in incubator at 23° C. for 1 h before read on Envision.
Data analysis: The IC50 values of compounds were calculated using Excel fit.

T1 sequence (Q06187 whole entry): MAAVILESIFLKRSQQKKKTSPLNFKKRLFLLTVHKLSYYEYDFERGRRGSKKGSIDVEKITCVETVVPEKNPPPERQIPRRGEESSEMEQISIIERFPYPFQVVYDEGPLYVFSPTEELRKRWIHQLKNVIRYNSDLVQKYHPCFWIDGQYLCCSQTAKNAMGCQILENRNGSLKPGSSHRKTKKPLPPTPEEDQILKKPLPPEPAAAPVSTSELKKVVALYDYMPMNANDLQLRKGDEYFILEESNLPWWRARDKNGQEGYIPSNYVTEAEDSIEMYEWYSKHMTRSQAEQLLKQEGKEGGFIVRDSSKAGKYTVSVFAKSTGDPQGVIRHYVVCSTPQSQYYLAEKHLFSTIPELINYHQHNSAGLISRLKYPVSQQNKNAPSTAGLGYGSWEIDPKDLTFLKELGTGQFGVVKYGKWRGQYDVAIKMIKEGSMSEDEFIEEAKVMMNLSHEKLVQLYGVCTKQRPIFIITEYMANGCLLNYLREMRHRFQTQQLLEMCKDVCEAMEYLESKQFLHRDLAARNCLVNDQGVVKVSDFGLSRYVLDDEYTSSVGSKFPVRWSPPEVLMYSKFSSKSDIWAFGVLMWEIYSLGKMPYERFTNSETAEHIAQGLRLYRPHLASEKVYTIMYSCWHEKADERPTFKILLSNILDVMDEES

| IC50 [µM] | SMILES |
| --- | --- |
| < 0.1 | C=CC(=O)N1CCC[C@@H](n2nc(-c3ccc(Oc4cc(C)ccn4)cc3)c3c(N)n[nH]c(=O)c32)C1 [Example 89] |
| 0.1 to 1 | C=CC(=O)N1CCC[C@@H](n2nc(-c3ccc(Oc4ccc(C)nn4)cc3)c3c(N)n[nH]c(=O)c32)C1 [Example 90] |
| < 0.1 | C=CC(=O)N1CCC[C@@H](n2nc(-c3ccc(Oc4ccc(C)cn4)cc3)c3c(N)n[nH]c(=O)c32)C1 [Example 91] |
| < 0.1 | C=CC(=O)N1CCC[C@@H](n2nc(-c3ccc(Oc4cccc(C)n4)cc3)c3c(N)n[nH]c(=O)c32)C1 [Example 92] |

Further lines, the compound ahead of its results:

| SMILES | IC50 [µM] |
| --- | --- |
| C=CC(=O)N1CCC[C@@H](n2nc(-c3ccc(Oc4ncccc4C)cc3)c3c(N)n[nH]c(=O)c32)C1 [Example 93] | < 0.1 |
| C=CC(=O)N1CCCC(n2nc(-c3ccc(Oc4ccccc4)cc3)c3cc4c(N)noc4cc32)C1 (stereo not shown) [Example 107] | 1 to 10 |
| C=CC(=O)N1CCCC(n2nc(-c3ccc(Oc4ccccc4)cc3)c3cc4c(N)ncnc4cc32)C1 (stereo not shown) [Example 108] | 1 to 10 |
